Key:
Type in all cases: in vivo
[1] = system: blackgrass (Alopecurus myosuroides); assay: Test A preemergence soil spray, visual injury rating 0-100; details: 10 days, 0 = no effect, 100 = complete control
Procedure, shortened: (§1)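 Scale 0–100 (no effect to complete control), visual, versus untreated controls, read 10 days after application. Application: preemergence directed spray onto seeded loam–sand soil, or postemergence to young plants; formulation in non-phytotoxic solvent with surfactant.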

[2] = system: ryegrass, Italian (italian ryegrass, Lolium multiflorum); assay: as above; details: 10 days, 0 = no effect, 100 = complete control
Procedure, shortened: as §1

[3] = system: kochia (Bassia scoparia); assay: as above; details: 10 days, 0 = no effect, 100 = complete control
Procedure, shortened: as §1

[4] = system: ragweed (common ragweed, Ambrosia artemisiifolia); assay: as above; details: 10 days, 0 = no effect, 100 = complete control
Procedure, shortened: as §1

[5] = system: green foxtail (Setaria viridis); assay: as above; details: 10 days, 0 = no effect, 100 = complete control
Procedure, shortened: as §1

[6] = system: wheat (Triticum aestivum); assay: as above; details: 10 days, 0 = no effect, 100 = complete control
Procedure, shortened: as §1

[7] = system: soybean (Glycine max); assay: as above; details: 10 days, 0 = no effect, 100 = complete control
Procedure, shortened: as §1

[8] = system: barnyardgrass (Echinochloa crus-galli); assay: as above; details: 10 days, 0 = no effect, 100 = complete control
Procedure, shortened: as §1

[9] = system: oat, wild (wild oat, Avena fatua); assay: as above; details: 10 days, 0 = no effect, 100 = complete control
Procedure, shortened: as §1

[10] = system: palmer (palmer amaranth, palmer pigweed, Amaranthus palmeri); assay: as above; details: 10 days, 0 = no effect, 100 = complete control
Procedure, shortened: as §1

[11] = system: corn (Zea mays); assay: as above; details: 10 days, 0 = no effect, 100 = complete control
Procedure, shortened: as §1

[12] = system: sedge, umbrella (small-flower umbrella sedge, Cyperus difformis); assay: Test B flooded paddy test, visual plant response rating 0-100; details: 250 g ai/ha, Flood, applied to paddy water, evaluated after 13 days
Procedure, shortened: (§2)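 2-leaf plants; flood 3 cm over soil; compound dosed into paddy water; depth kept constant; greenhouse 13 d; visual scoring vs controls. Dash = no result.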

[13] = system: rice (Oryza sativa); assay: as above; details: 250 g ai/ha, Flood, applied to paddy water, evaluated after 13 days
Procedure, shortened: as §2

[14] = system: ducksalad (Heteranthera limosa); assay: as above; details: 250 g ai/ha, Flood, applied to paddy water, evaluated after 13 days
Procedure, shortened: as §2

[15] = system: barnyardgrass (Echinochloa crusgalli); assay: as above; details: 250 g ai/ha, Flood, applied to paddy water, evaluated after 13 days
Procedure, shortened: as §2

[16] = system: blackgrass (Alopecurus myosuroides); assay: Test A postemergence application, visual injury rating 0-100; details: 10 days
Procedure, shortened: as §1

[17] = system: ryegrass, Italian (italian ryegrass, Lolium multiflorum); assay: as above; details: 10 days
Procedure, shortened: as §1

[18] = system: kochia (Bassia scoparia); assay: as above; details: 10 days
Procedure, shortened: as §1

[19] = system: ragweed (common ragweed, Ambrosia artemisiifolia); assay: as above; details: 10 days
Procedure, shortened: as §1

[20] = system: green foxtail (Setaria viridis); assay: as above; details: 10 days
Procedure, shortened: as §1

[21] = system: wheat (Triticum aestivum); assay: as above; details: 10 days
Procedure, shortened: as §1

[22] = system: galium (catchweed bedstraw, Galium aparine); assay: as above; details: 10 days
Procedure, shortened: as §1

[23] = system: soybean (Glycine max); assay: as above; details: 10 days
Procedure, shortened: as §1

[24] = system: barnyardgrass (Echinochloa crus-galli); assay: as above; details: 10 days
Procedure, shortened: as §1

[25] = system: oat, wild (wild oat, Avena fatua); assay: as above; details: 10 days
Procedure, shortened: as §1

[26] = system: palmer (palmer amaranth, palmer pigweed, Amaranthus palmeri); assay: as above; details: 10 days
Procedure, shortened: as §1

[27] = system: corn (Zea mays); assay: as above; details: 10 days
Procedure, shortened: as §1

[28] = system: horseweed (Erigeron canadensis); assay: as above; details: 10 days
Procedure, shortened: as §1

[29] = 31 g ai/ha, postemergence, 0 = no effect, 100 = complete control
[30] = Postemergence, 125 g ai/ha, 0 is no effect, 100 is complete control

For CCOC(=O)C1CC(NC(=O)C2(C)CN(c3cc(F)cc(F)c3)C(=O)O2)CO1 (stereo not shown) [Compound 31], the “Blackgrass plant response rating (0-100)” value ([1]; 31 g ai/ha) was 20, the “Blackgrass plant response rating (0 to 100 scale)” value ([1]; 125 g ai/ha) was 30 and the “Ryegrass, Italian plant response rating (0-100)” value ([2]; 31 g ai/ha) was 0. For the same molecule, the “Ryegrass, Italian plant response rating (0 to 100 scale)” value ([2]; 125 g ai/ha) was 60, the “Kochia plant response rating (0-100)” value ([3]; 31 g ai/ha) was 0 and the “Kochia plant response rating (0 to 100 scale)” value ([3]; 125 g ai/ha) was 0. The “Ragweed plant response rating (0-100)” value ([4]; 31 g ai/ha) was 0, the “Ragweed plant response rating (0 to 100 scale)” value ([4]; 125 g ai/ha) was 0 and the “Foxtail, Green plant response rating (0-100)” value ([5]; 31 g ai/ha) was 0. The “Foxtail, Green plant response rating (0 to 100 scale)” value ([5]; 125 g ai/ha) was 0, the “Wheat plant response rating (0-100)” value ([6]; 31 g ai/ha) was 0 and the “Wheat plant response rating (0 to 100 scale)” value ([6]; 125 g ai/ha) was 90. The “Soybean plant response rating (0-100)” value ([7]; 31 g ai/ha) was 0, the “Soybean plant response rating (0 to 100 scale)” value ([7]; 125 g ai/ha) was 0 and the “Barnyardgrass plant response rating (0-100)” value ([8]; 31 g ai/ha) was 0. The “Barnyardgrass plant response rating (0 to 100 scale)” value ([8]; 125 g ai/ha) was 0, the “Oat, Wild plant response rating (0-100)” value ([9]; 31 g ai/ha) was 0 and the “Oat, Wild plant response rating (0 to 100 scale)” value ([9]; 125 g ai/ha) was 30. For the same molecule, the “Amaranth, Palmer plant response rating (0-100)” value ([10]; 31 g ai/ha) was 0, the “Amaranth, Palmer plant response rating (0 to 100 scale)” value ([10]; 125 g ai/ha) was 10 and the “Corn plant response rating (0-100)” value ([11]; 31 g ai/ha) was 0. The “Corn plant response rating (0 to 100 scale)” value ([11]; 125 g ai/ha) was 0, the “Plant response rating, Sedge, Umbrella (0 to 100 scale, 0 is no effect and 100 is complete control)” value [12] was 0 and the “Plant response rating, Rice (0 to 100 scale, 0 is no effect and 100 is complete control)” value [13] was 0. For the same molecule, the “Plant response rating, Ducksalad (0 to 100 scale, 0 is no effect and 100 is complete control)” value [14] was 0, the “Plant response rating, Barnyardgrass (0 to 100 scale, 0 is no effect and 100 is complete control)” value [15] was 0 and the “Blackgrass plant response rating (0-100)” value [16, 29] was 90. The “Blackgrass plant response rating (0 to 100 scale)” value [16, 30] was 100, the “Ryegrass, Italian plant response rating (0-100)” value [17, 29] was 60 and the “Ryegrass, Italian plant response rating (0 to 100 scale)” value [17, 30] was 90. For the same molecule, the “Kochia plant response rating (0-100)” value [18, 29] was 0, the “Kochia plant response rating (0 to 100 scale)” value [18, 30] was 70 and the “Ragweed plant response rating (0-100)” value [19, 29] was 30. For the same molecule, the “Ragweed plant response rating (0 to 100 scale)” value [19, 30] was 50, the “Foxtail, Green plant response rating (0-100)” value [20, 29] was 0 and the “Foxtail, Green plant response rating (0 to 100 scale)” value [20, 30] was 80. For the same molecule, the “Wheat plant response rating (0-100)” value [21, 29] was 90, the “Wheat plant response rating (0 to 100 scale)” value [21, 30] was 90 and the “Galium plant response rating (0-100)” value [22, 29] was 60. The “Galium plant response rating (0 to 100 scale)” value [22, 30] was 70, the “Soybean plant response rating (0-100)” value [23, 29] was 10 and the “Soybean plant response rating (0 to 100 scale)” value [23, 30] was 60. For the same molecule, the “Barnyardgrass plant response rating (0-100)” value [24, 29] was 10, the “Barnyardgrass plant response rating (0 to 100 scale)” value [24, 30] was 90 and the “Oat, Wild plant response rating (0-100)” value [25, 29] was 80. The “Oat, Wild plant response rating (0 to 100 scale)” value [25, 30] was 90, the “Amaranth, Palmer plant response rating (0-100)” value [26, 29] was 0 and the “Amaranth, Palmer / Pigweed, Palmer plant response rating (0 to 100 scale)” value [26, 30] was 20. The “Corn plant response rating (0-100)” value [27, 29] was 0, the “Corn plant response rating (0 to 100 scale)” value [27, 30] was 50 and the “Horseweed plant response rating (0-100)” value [28, 29] was 0. The “Horseweed plant response rating (0 to 100 scale)” value [28, 30] was 0.
